According to patent publication US10300067B2, “Tetrahydropyridopyrimidine compound or salt thereof” (TAIHO PHARMACEUTICAL CO., LTD., priority 2014, dated 2019):

Assays:
Assay type in all cases: cell-based
[1] = target: androgen receptor (Homo sapiens (Human), UniProt P10275, T878A); assay: Activity of reducing expression level of androgen receptor (Western blotting of LNCaP cell lysate); settings: 48 hours
Description: AR positive human prostate cancer cells LNCaP were seeded in a clear bottom 6 well microplate (BD) at 3.5×10^5/well with phenol red free RPMI1640 containing 5% FBS (hereinbelow, the medium is referred to as an evaluation medium), and then cultured overnight. The culture was added with the evaluation medium containing the compound of Examples or the compound of Comparative Examples such that the final concentration of the compound of Examples or the compound of Comparative Examples was 10000 nmol/L, followed by culture for 48 hours. After culture for 48 hours, the medium was removed and the cells were washed with PBS and added with 0.1 mL of Lysis buffer (M-PER added with Protease Inhibitor Cocktail), followed by keeping at 4° C. for 20 minutes. After cell lysis, the cell solution was centrifuged to recover the supernatant as cell lysate. […] The antibody-reacting band (anti AR receptor) was quantified by LAS-3000 (FUJIFILM) using Super Signal West Pico Substrate (Thermo Scientific) as a detection reagent.

[2] = target: human androgen receptor (Homo sapiens (Human), UniProt P10275); assay: Antagonist activity for AR (pMMTV-luc reporter transcription activity in transfected COS-7 cells, DHT 1 nmol/L); settings: for IC50: 50% transcription activity inhibition concentration, COS-7 cells with pMMTV-luc and pEX-hAR, DHT 1 nmol/L, 24 hours; for antagonist activity for AR (in words): COS-7 reporter assay
Description: Antagonist activity for AR was evaluated according to the following method. COS-7 cells (ATCC) were transfected with pMMTV-luc vector (reporter plasmid having, as an androgen response element, […] long terminal repeat) and pEX-hAR vector (human androgen receptor expression vector: which expresses human AR gene under control of CMV promoter) by using Nucleofector (registered trademark) Kit R (Lonza) as a transfection reagent and Amaxa (Lonza). The COS-7 cells obtained after transfection were seeded in a clear bottom 96 well microplate (BD) at 1.5×10^4/well with phenol red free RPMI1640 containing 10% charcoal-treated fetal bovine serum (hereinbelow, DCC-FBS) (hereinbelow, the medium is referred to as an evaluation medium), and then cultured overnight. […] Then, the transcription activity value was measured. The transcription activity was measured by using Bright-Glo™ Luciferase Assay System (Promega).

[3] = test system: AR positive human prostate cancer cells VCaP; assay: Agonist activity for AR (cell proliferation rate of VCaP cells); settings: 72 hours, 2 to 10000 nmol/L, more than 10% at any concentration = agonist activity for AR
Description: AR positive human prostate cancer cells VCaP (In Vivo 15:163-168, 2001) were seeded in a clear bottom 96 well microplate (BD) at 1.5×10^4/well with phenol red free RPMI1640 containing 5% DCC-FBS (hereinbelow, the medium is referred to as an evaluation medium), and then cultured overnight. The culture was added with the evaluation medium containing the compound of Examples or the compound of Comparative Examples (final concentration of the compound of Examples or the compound of Comparative Examples: 2, 5, 14, 41, 123, 370, 1111, 3333, or 10000 nmol/L), followed by culture for 72 hours. Then, the number of viable cells was counted (test group). As a control, the cells were cultured after being added with the evaluation medium only, and the number of viable cells was counted (control group). The number of viable cells was measured by using CellTiter-Glo™ Luminescent Cell Viability Assay (Promega). From the measured number of viable cells, cell proliferation rate with respect to the compound of Examples or the compound of Comparative Examples was calculated based on the number of viable cells measured in the case of using the evaluation medium only. Cell proliferation rate (%) =(Number of viable cells in test group−Number of viable cells in control group)/(Number of viable cells in control group)×100
By considering an error in the number of viable cells measured in the case of using the evaluation medium only, when the cell proliferation rate was more than 10% at any concentration of the 9 concentrations which had been evaluated, it was determined to have an agonist activity for AR.

Sequence of androgen receptor (P10275 whole entry T878A): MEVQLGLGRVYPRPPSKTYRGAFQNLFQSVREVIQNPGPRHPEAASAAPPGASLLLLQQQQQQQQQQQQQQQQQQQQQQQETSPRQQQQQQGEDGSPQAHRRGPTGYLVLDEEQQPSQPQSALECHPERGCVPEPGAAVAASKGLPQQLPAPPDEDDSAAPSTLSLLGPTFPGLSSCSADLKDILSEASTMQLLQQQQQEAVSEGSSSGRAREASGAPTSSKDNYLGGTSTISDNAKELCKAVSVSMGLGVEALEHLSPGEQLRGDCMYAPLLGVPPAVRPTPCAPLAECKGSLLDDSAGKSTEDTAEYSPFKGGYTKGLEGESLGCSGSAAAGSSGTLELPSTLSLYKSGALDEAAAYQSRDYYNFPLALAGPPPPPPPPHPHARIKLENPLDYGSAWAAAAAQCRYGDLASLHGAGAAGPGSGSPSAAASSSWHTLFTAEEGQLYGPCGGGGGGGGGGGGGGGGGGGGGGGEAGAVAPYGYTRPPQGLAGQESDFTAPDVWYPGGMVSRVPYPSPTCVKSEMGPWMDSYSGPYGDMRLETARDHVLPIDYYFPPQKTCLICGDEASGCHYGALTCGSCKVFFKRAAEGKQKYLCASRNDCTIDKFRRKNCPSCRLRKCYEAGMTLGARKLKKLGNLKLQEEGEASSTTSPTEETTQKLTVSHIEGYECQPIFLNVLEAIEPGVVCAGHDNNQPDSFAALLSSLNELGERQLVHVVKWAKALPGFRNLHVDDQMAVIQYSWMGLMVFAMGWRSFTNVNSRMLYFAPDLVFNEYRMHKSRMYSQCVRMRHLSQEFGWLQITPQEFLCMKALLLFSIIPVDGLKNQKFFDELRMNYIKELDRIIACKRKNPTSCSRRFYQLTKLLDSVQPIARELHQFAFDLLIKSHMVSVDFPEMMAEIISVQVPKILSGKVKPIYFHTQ
Sequence of human androgen receptor (P10275 whole entry): as the sequence (P10275 whole entry T878A) above, with A878T counted along it

SMILES: CC(C)Oc1ccc(Nc2ncnc3c2CN(c2ccc(C#N)c(C(F)(F)F)c2)CC3)cc1 [Comparative Example 2, 4-(4-((4-Isopropoxyphenyl)amino)-7,8-dihydropyrido[4,3-d]pyrimidin-6(5H)-yl)-2-(trifluoromethyl)benzonitrile, reference compound]
- 10 μM AR expression reducing activity [1]: <10%
- IC50 [2]: > 10000 nM
- antagonist activity for AR (in words) [2]: no antagonist activity for AR

SMILES: CC(C)Oc1ccc(Nc2nnc3n2CCN(c2ccc(C#N)c(C(F)(F)F)c2)C3)cc1 [Comparative Example 3, 4-(3-((4-Isopropoxyphenyl)amino)-5,6-dihydro[1,2,4]triazolo[4,3-a]pyrazin-7(8H)-yl)-2-(trifluoromethyl)benzonitrile, reference compound]
- 10 μM AR expression reducing activity [1]: <10%
- IC50 [2]: > 10000 nM
- antagonist activity for AR (in words) [2]: no antagonist activity for AR

SMILES: FC(F)(F)c1ccc(Nc2ncnc3c2CCN(c2ncccc2Cl)C3)cc1 [Comparative Example 4, 7-(3-Chloropyridin-2-yl)-N-(4-(trifluoromethyl)phenyl)-5,6,7,8-tetrahydropyrido[3,4-d]pyrimidin-4-amine, reference compound]
- 10 μM AR expression reducing activity [1]: <10%
- IC50 [2]: > 10000 nM
- antagonist activity for AR (in words) [2]: no antagonist activity for AR

SMILES: COc1ccc(Nc2ncnc3c2CCN(c2ccc(C#N)c(C(F)(F)F)c2)C3)cc1 [Example 3, 4-(4-((4-Methoxyphenyl)amino)-5,6-dihydropyrido[3,4-d]pyrimidin-7(8H)-yl)-2-(trifluoromethyl)benzonitrile]
- 10 μM AR expression reducing activity [1]: reduced (When the AR expression reducing activity is 50% or more, it is described as “reduced”)
- Cell proliferation rate (%) [3]: 1.0%
- IC50 [2]: 530 nM

SMILES: N#Cc1ccc(N2CCc3c(ncnc3Nc3cccc(-c4ccccc4)c3)C2)cc1C(F)(F)F [Example 4, 4-(4-((1,1′-Biphenyl)-3-ylamino)-5,6-dihydropyrido[3,4-d]pyrimidin-7(8H)-yl)-2-(trifluoromethyl)benzonitrile]
- 10 μM AR expression reducing activity [1]: reduced (When the AR expression reducing activity is 50% or more, it is described as “reduced”)
- IC50 [2]: 620 nM

SMILES: CC(C)(O)c1sc(Nc2ncnc3c2CCN(c2ccc(C#N)c(C(F)(F)F)c2)C3)nc1C(F)(F)F [Example 8, 4-(4-((5-(2-Hydroxypropan-2-yl)-4-(trifluoromethyl)thiazol-2-yl)amino)-5,6-dihydropyrido[3,4-d]pyrimidin-7(8H)-yl)-2-(trifluoromethyl)benzonitrile]
- 10 μM AR expression reducing activity [1]: reduced (When the AR expression reducing activity is 50% or more, it is described as “reduced”)
- IC50 [2]: 250 nM

SMILES: N#Cc1ccc(N2CCc3c(ncnc3Nc3ccc(C4(O)CC4)cn3)C2)cc1C(F)(F)F [Example 12, 4-(4-((5-(1-Hydroxycyclopropyl)pyridin-2-yl)amino)-5,6-dihydropyrido[3,4-d]pyrimidin-7(8H)-yl)-2-(trifluoromethyl)benzonitrile]
- 10 μM AR expression reducing activity [1]: reduced (When the AR expression reducing activity is 50% or more, it is described as “reduced”)
- IC50 [2]: 170 nM

SMILES: N#Cc1ccc(N2CCc3c(ncnc3Nc3ccc(OCCn4ccnn4)nc3)C2)cc1C(F)(F)F [Example 15, 4-(4-((6-(2-(1H-1,2,3-Triazol-1-yl)ethoxy)pyridin-3-yl)amino)-5,6-dihydropyrido[3,4-d]pyrimidin-7 (8H)-yl)-2-(trifluoromethyl)benzonitrile]
- Cell proliferation rate (%) [3]: 0.3%
- IC50 [2]: 130 nM

SMILES: N#Cc1ccc(N2CCc3c(ncnc3Nc3ccc(NC(=O)OCC(F)(F)F)cn3)C2)cc1C(F)(F)F [Example 21, 2,2,2-Trifluoroethyl (6-((7-(4-cyano-3-(trifluoromethyl)phenyl)-5,6,7,8,-tetrahydropyrido[3,4-d]pyrimidin-4-yl)amino)pyridin-3-yl)carbamate]
- Cell proliferation rate (%) [3]: −0.6%
- IC50 [2]: 380 nM

SMILES: N#Cc1ccc(N2CCc3c(ncnc3Nc3ncc(C(=O)NCC(F)(F)F)nn3)C2)cc1C(F)(F)F [Example 25, 3-((7-(4-Cyano-3-(trifluoromethyl)phenyl)-5,6,7,8-tetrahydropyrido[3,4-d]pyrimidin-4-yl)amino)-N-(2,2,2-trifluoroethyl)-1,2,4-triazine-6-carboxamide]
- Cell proliferation rate (%) [3]: 6.3%
- IC50 [2]: 3320 nM

SMILES: N#Cc1ccc(N2CCc3c(ncnc3Nc3nc(C(F)(F)F)c(C(=O)NCC(F)(F)F)s3)C2)cc1C(F)(F)F [Example 26, 2-((7-(4-Cyano-3-(trifluoromethyl)phenyl)-5,6,7,8-tetrahydropyrido[3,4-d]pyrimidin-4-yl)amino)-N-(2,2,2-trifluoroethyl)-4-(trifluoromethyl)thiazol-5-carboxamide]
- 10 μM AR expression reducing activity [1]: reduced (When the AR expression reducing activity is 50% or more, it is described as “reduced”)
- Cell proliferation rate (%) [3]: 5.7%
- IC50 [2]: 60 nM

SMILES: N#Cc1ccc(N2CCc3c(ncnc3Nc3ccc(C(=O)NCC(F)F)nc3)C2)cc1C(F)(F)F [Example 48, 5-((7-(4-Cyano-3-(trifluoromethyl)phenyl)-5,6,7,8-tetrahydropyrido[3,4-d]pyrimidin-4-yl)amino)-N-(2,2-difluoroethyl)picolinamide]
- Cell proliferation rate (%) [3]: −2.6%
- IC50 [2]: 490 nM

SMILES: N#Cc1ccc(N2CCc3c(ncnc3Nc3ccc(C(=O)NCC(F)(F)F)nn3)C2)cc1Cl [Example 49, 6-((7-(3-Chloro-4-cyanophenyl)-5,6,7,8-tetrahydropyrido[3,4-d]pyrimidin-4-yl)amino)-N-(2,2,2-trifluoroethyl)pyridazine-3-carboxamide]
- 10 μM AR expression reducing activity [1]: reduced (When the AR expression reducing activity is 50% or more, it is described as “reduced”)
- IC50 [2]: 2 nM

SMILES: CC(C)(COc1ccc(Nc2ncnc3c2CCN(c2ccc(C#N)c(Cl)c2)C3)nc1)n1cnnn1 [Example 53, 2-Chloro-4-(4-((5-(2-methyl-2-(1H-tetrazol-1-yl)propoxy)pyridin-2-yl)amino)-5,6-dihydropyrido[3,4-d]pyrimidin-7(8H)-yl)benzonitrile]
- IC50 [2]: 55 nM

SMILES: COc1ccc(Nc2ncnc3c2CCN(c2ccc(C#N)c(Cl)c2)C3)cc1 [Example 54, 2-Chloro-4-(4-((4-methoxyphenyl)amino)-5,6-dihydropyrido[3,4-d]pyrimidin-7(8H)-yl)benzonitrile]
- Cell proliferation rate (%) [3]: 3.4%

SMILES: COc1cccc(Nc2ncnc3c2CCN(c2ccc(C#N)c(Cl)c2)C3)c1 [Example 55, 2-Chloro-4-(4-((3-methoxyphenyl)amino)-5,6-dihydropyrido[3,4-d]pyrimidin-7(8H)-yl)benzonitrile]
- Cell proliferation rate (%) [3]: 1.0%

SMILES: N#Cc1ccc(N2CCc3c(ncnc3Nc3ccc(C4(O)CCC4)c(F)n3)C2)cc1Cl [Example 56, 2-Chloro-4-(4-((6-fluoro-5-(1-hydroxycyclobutyl)pyridin-2-yl)amino)-5,6-dihydropyrido[3,4-d]pyrimidin-7 (8H)-yl)benzonitrile]
- Cell proliferation rate (%) [3]: 8.0%
- IC50 [2]: 840 nM

SMILES: CC(C)(O)c1ccc(Nc2ncnc3c2CCN(c2ccc(C#N)c(C(F)(F)F)c2)C3)cc1 [Example 57]
- 10 μM AR expression reducing activity [1]: reduced (When the AR expression reducing activity is 50% or more, it is described as “reduced”)
- Cell proliferation rate (%) [3]: 5.0%

SMILES: CC(O)c1ccc(Nc2ncnc3c2CCN(c2ccc(C#N)c(C(F)(F)F)c2)C3)cc1 (stereo not drawn) [Example 58]
- Cell proliferation rate (%) [3]: 2.0%
